From the supplement of paper PMC10307832

How the values were obtained:
Test in all cases: relative viability (nuclei count vs DMSO), 5 days (fraction); higher = more cells survive
[1] = compound: O=C(O)c1ccc2c(c1)nc(Nc1cccc(Cl)c1)c1ccncc12 [Silmitasertib]
Summary of the method: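 Acceptance criteria were a control CV below 25% and at least one doubling per plate. Lung cancer cell lines in 1536-well plates got five library-drug doses (not always all listed) √10 apart by pinning and were left 5 days with no medium change. Viability divides treated-well nuclei by vehicle-well nuclei and is the median across plates. Nuclei were counted by MetaXpress from 4× Hoechst images.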

[2] = compound: O=C(O)c1ccc2c(c1)nc(Nc1cccc(Cl)c1)c1ccncc12 [Silmitasertib] + C[C@]1(O)C[C@@H](c2nc(-c3ccc4ccc(-c5ccccc5)nc4c3)c3c(N)nccn32)C1 [Linsitinib] (partner 1 µM)
Summary of the method: (§1)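 Lung cancer cell lines were pin-tool dosed in 1536-well plates on the day after seeding, with either a lone drug or a fixed anchor-drug dose plus five library-drug doses (not always all listed) in √10 steps. Nuclei were counted on 4× images after 5 days. Relative viability is the ratio of treated-well to vehicle-well nuclei counts, with each value a median of duplicate plates.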

[3] = compound: O=C(O)c1ccc2c(c1)nc(Nc1cccc(Cl)c1)c1ccncc12 [Silmitasertib] + COc1cc2c(Oc3ccc(NC(=O)C4(C(=O)Nc5ccc(F)cc5)CC4)cc3F)ccnc2cc1OCCCN1CCOCC1 [Foretinib] (partner 0.25 µM)
Summary of the method: as §1

[4] = compound: O=C(O)c1ccc2c(c1)nc(Nc1cccc(Cl)c1)c1ccncc12 [Silmitasertib] + C[C@@H](Oc1cc(-c2cnn(C3CCNCC3)c2)cnc1N)c1c(Cl)ccc(F)c1Cl [Crizotinib] (partner 1 µM)
Summary of the method: as §1

[5] = compound: O=C(O)c1ccc2c(c1)nc(Nc1cccc(Cl)c1)c1ccncc12 [Silmitasertib] + N=C(N)NC(=N)NCCc1ccccc1 [Phenformin] (partner 250 µM)
Summary of the method: as §1

Cell Line | relative viability ([1]; 0.04 µM) | relative viability ([1]; 0.4 µM) | relative viability ([1]; 1.265 µM) | relative viability ([1]; 4 µM) | relative viability ([2]; first compound 0.04 µM) | relative viability ([2]; first compound 0.4 µM) | relative viability ([2]; first compound 1.265 µM) | relative viability ([2]; first compound 4 µM) | relative viability ([3]; first compound 0.04 µM) | relative viability ([3]; first compound 0.4 µM) | relative viability ([3]; first compound 1.265 µM) | relative viability ([3]; first compound 4 µM) | relative viability ([4]; first compound 0.04 µM) | relative viability ([4]; first compound 0.4 µM) | relative viability ([4]; first compound 1.265 µM) | relative viability ([4]; first compound 4 µM) | relative viability ([5]; first compound 0.04 µM) | relative viability ([5]; first compound 0.4 µM) | relative viability ([5]; first compound 1.265 µM) | relative viability ([5]; first compound 4 µM)
SK-LU-1 | 1.13 | 0.703 | 0.802 | 0.457 | 1.22 | 0.987 | 0.688 | 0.297 | 0.954 | 0.693 | 0.621 | 0.417 | 1.2 | 0.714 | 0.502 | 0.315 | 0.527 | 0.451 | 0.426 | 0.262
NCI-H1437 | 1.04 | 0.679 | 0.784 | 0.737 | 1.03 |  | 0.691 | 0.36 | 1.28 | 1.16 | 1.24 | 0.942 | 0.916 |  | 0.865 | 0.778 | 0.327 | 0.334 | 0.305 | 0.278
NCI-H1734 | 1.07 | 0.816 | 0.975 | 0.691 | 0.884 |  | 0.801 | 0.929 | 0.877 | 0.8 | 0.781 | 0.753 | 0.628 |  | 0.606 | 0.655 | 0.499 | 0.358 | 0.42 | 0.357
LK-2 | 1.04 | 0.727 | 1.03 | 0.943 | 0.557 | 0.474 | 0.365 | 0.451 | 1.07 |  | 1.08 | 0.818 | 0.198 | 0.333 | 0.245 | 0.187 | 0.485 |  | 0.415 | 0.271
HCC-15 | 1.11 | 0.769 | 0.825 | 0.377 | 0.882 | 0.681 | 0.671 | 0.475 | 1.03 | 0.86 | 0.772 | 0.761 | 0.804 | 0.603 | 0.71 | 0.575 | 0.541 | 0.39 | 0.398 | 0.25
HCC-366 | 0.993 | 0.794 | 0.923 | 0.136 | 0.869 |  | 0.366 | 0.379 | 1 | 0.877 | 0.78 | 1.02 | 0.581 |  | 0.472 | 0.395 | 0.698 | 0.42 | 0.6 | 0.24
NCI-H650 | 1.17 | 0.567 | 0.66 | 0.379 | 0.96 | 0.563 | 0.757 | 0.407 | 1.07 | 0.699 | 0.884 | 0.777 | 0.79 | 0.502 | 0.463 | 0.378 | 0.542 | 0.339 | 0.377 | 0.235
NCI-H2347 | 1.1 | 0.754 | 0.98 | 0.687 | 1.01 | 0.952 | 0.967 | 0.848 | 0.612 | 0.762 | 0.885 | 0.561 | 0.792 | 0.683 | 0.725 | 0.567 | 1.22 |  | 0.452 | 0.301
LXF-289 | 1.05 |  | 1.05 | 1.02 | 0.91 |  | 1.08 | 1.06 | 0.983 |  | 1.04 | 1.05 | 0.794 |  | 0.842 | 0.825 | 0.53 |  | 0.58 | 0.382
BEN | 1.16 | 0.795 | 1 | 0.885 | 1.03 | 0.892 | 1.01 | 0.882 | 0.858 |  | 0.657 | 0.467 | 0.974 | 0.827 | 0.739 | 0.846 | 0.275 |  | 0.281 | 0.258
NCI-H2023 | 1.03 | 0.791 | 0.87 | 0.651 | 0.741 | 0.62 | 0.532 | 0.472 | 0.886 | 0.75 | 0.551 | 0.707 | 0.663 | 0.585 | 0.513 | 0.542 | 0.455 | 0.38 | 0.374 | 0.34
NCI-H661 | 1.06 | 0.829 | 0.946 | 0.991 | 0.646 |  | 0.38 | 0.577 | 1.1 | 1.01 | 0.892 | 0.884 | 1.02 | 0.929 |  | 1.1 | 0.287 | 0.339 | 0.283 | 0.276
NCI-H1355 | 1.06 |  | 0.918 | 0.668 | 0.857 |  | 0.768 | 0.796 | 0.944 |  | 0.822 | 0.916 | 1.07 |  | 1.1 | 1.07 | 0.457 |  | 0.46 | 0.43
COR-L 105 | 1.05 | 0.902 | 0.768 | 0.553 | 0.977 | 0.82 | 0.92 | 0.574 | 1.44 | 0.881 | 0.791 | 0.562 | 0.881 | 0.679 | 0.702 | 0.501 | 0.476 | 0.458 | 0.408 | 0.307
